Assay results: US5326771A, “Piperidylmethyl-substituted chroman derivatives” (Bayer Aktiengesellschaft, priority 1991, dated 1994)
Counter-ions that a name gives are not always drawn.

How the values were obtained:
[1] = molecular target: 5-HT1 receptor; assay: Affinity for the 5-HT1 receptor (receptor-bonding, 3H-serotonin, calf hippocampus membranes); format: binding; details: calf hippocampus membrane preparations, 3H-serotonin as radioligand
Experimental: The high affinity of the compounds according to the invention for 5-hydroxytryptamine receptors of the subtype 1 is shown by way of example in Table [A]. The values stated are data which were determined from receptor-bonding studies using calf hippocampus membrane preparations. ^3 H-Serotonin was used as the radioactively labelled ligand for this purpose.

[2] = molecular target: T1, Dopamine D2 receptor (Rattus norvegicus, UniProt P61169); assay: Dopamine D2 receptor test (3H-sulpiride bonding, rat striatum membranes); format: binding; details: Ki calculated from IC50 of displacement curves
T1 construct: membranes from the striatum of the rat; from tissue; host or cells: rat striatum membranes
Experimental: This test is carried out in accordance with the following literature reference: Imafuku J. (1987), Brain Research 402; 331-338.
The bonding of the selective D2 receptor antagonist ^3 H-sulpiride to membranes from the striatum of the rat is measured here. Compounds which bond to dopamine D2 receptors inhibit the bonding of ^3 H-sulpiride as a function of the concentration. IC50 values are determined from the displacement curves, and the inhibition constants Ki are calculated from these.

[3] = tested on: α-adrenergic; details: in the form of its hydrochloride; Eur. J. Med. Chem. 22 (6), 539-544; cited from earlier work
[4] = molecular target: T2, 5-HT1A receptor (Bos taurus, UniProt F6Q2H9); assay: Affinity for the 5-HT1A receptor (3H-ipsapirone bonding, calf hippocampus membranes); format: binding
T2 construct: 5-HT1A receptors in calf hippocampus membranes; from tissue; host or cells: calf hippocampus membranes
T2 sequence (F6Q2H9 1-422): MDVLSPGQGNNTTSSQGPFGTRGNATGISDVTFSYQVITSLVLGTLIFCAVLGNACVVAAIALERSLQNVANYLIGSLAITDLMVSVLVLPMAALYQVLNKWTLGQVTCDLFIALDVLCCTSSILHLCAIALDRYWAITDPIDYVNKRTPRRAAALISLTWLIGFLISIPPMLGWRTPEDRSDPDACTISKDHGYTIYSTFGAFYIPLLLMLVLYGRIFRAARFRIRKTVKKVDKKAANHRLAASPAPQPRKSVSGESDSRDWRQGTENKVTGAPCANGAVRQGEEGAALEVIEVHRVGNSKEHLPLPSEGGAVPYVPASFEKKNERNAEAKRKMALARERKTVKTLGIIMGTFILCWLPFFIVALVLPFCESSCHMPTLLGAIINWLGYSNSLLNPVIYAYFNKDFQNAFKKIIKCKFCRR
Experimental: [W. U. Dompert et al., Naunyn-Schmiedeberg's Arch. Pharmacol. (1985), 328, 467-470].
The bonding of ^3 H-ipsapirone to 5-HT1A receptors in calf hippocampus membranes is measured in this test.

T1 sequence (P61169 whole entry): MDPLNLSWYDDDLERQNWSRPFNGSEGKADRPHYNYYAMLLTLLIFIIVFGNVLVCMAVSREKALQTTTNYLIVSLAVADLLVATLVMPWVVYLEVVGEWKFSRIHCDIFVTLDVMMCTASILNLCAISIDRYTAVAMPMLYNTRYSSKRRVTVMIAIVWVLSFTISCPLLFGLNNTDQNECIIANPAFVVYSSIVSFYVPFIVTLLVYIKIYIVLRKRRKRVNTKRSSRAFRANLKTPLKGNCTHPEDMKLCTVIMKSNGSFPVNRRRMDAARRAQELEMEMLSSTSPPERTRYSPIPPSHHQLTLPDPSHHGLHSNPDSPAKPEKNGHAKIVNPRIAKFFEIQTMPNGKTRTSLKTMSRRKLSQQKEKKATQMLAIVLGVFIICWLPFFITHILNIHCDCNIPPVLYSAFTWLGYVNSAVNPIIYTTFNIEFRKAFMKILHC

## COc1cccc2c1OC(CN1CCC(O)(c3ccc(Cl)cc3)CC1)CC2 (centres unmarked) [Example 1, 2-[4-(4-Chlorophenyl)-4-hydroxy-piperidin-1-yl]methyl-8-methoxy-chroman hydrochloride]
[1]
  Ki: 22 nM

## OC1(c2ccc(Cl)c(C(F)(F)F)c2)CCN(CC2CCc3ccccc3O2)CC1 (centres unmarked) [Example 8]
[2]
  Ki: 0.9 nM

## c1ccc2c(c1)CCC(CN1CCCCC1)O2 (centres unmarked) [1-[(3,4-dihydro-2H-1-benzopyran-2-yl)methyl]piperidine]
[3]
  α-adrenergic blocking action: having an α-adrenergic blocking action

## OC1(c2cccc(C(F)(F)F)c2)CCN(CC2CCc3ccccc3O2)CC1 (centres unmarked) [Example 10]
[2]
  Ki: 2.3 nM

## OC1(c2ccc(Cl)cc2)CCN(CC2CCc3ccccc3O2)CC1 (centres unmarked) [Example 4]
[2]
  Ki: 2.5 nM
[1]
  Ki: 76 nM

## COc1cccc2c1OC(CN1CCC(O)(c3cccc(C(F)(F)F)c3)CC1)CC2 (centres unmarked) [Example 9]
[4]
  Ki: 6 nM

## COc1cccc2c1OC(CN1CCC(c3ccccc3)(c3ccccc3)CC1)CC2 (centres unmarked) [Example 5]
[4]
  Ki: 9.9 nM
